From ChEMBL document CHEMBL1201862, “PubChem BioAssay data set” (2004)
Values joined by “and” are separate entries in the source; they are usually repeats but may differ in a detail not shown here. Identical values can stand only once. Active and inactive are the calls of the source.

Experiments:
[1] = molecular target: T1, Zinc finger protein mex-5 (Caenorhabditis elegans, UniProt Q9XUB2); assay: potency of MEX-5 RNA-binding blockers – biochemical, C. elegans, fluorescence polarization, dose response (AID 1960)
T1 sequence (Q9XUB2 whole entry): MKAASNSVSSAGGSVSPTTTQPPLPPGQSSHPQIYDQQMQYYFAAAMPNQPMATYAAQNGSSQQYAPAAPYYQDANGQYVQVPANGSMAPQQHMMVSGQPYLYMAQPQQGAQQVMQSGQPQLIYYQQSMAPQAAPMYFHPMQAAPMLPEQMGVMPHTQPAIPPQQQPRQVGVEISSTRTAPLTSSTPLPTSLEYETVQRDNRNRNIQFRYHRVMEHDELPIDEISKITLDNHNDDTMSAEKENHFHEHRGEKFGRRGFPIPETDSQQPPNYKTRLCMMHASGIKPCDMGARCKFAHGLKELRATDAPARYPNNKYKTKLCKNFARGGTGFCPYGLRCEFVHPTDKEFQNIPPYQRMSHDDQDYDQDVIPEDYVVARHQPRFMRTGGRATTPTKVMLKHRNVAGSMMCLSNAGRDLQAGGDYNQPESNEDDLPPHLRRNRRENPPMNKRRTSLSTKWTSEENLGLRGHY

[2] = molecular target: T2, RNA-binding protein pos-1 (Caenorhabditis elegans, UniProt G5EF15); assay: disruptors of C. elegans POS-1 RNA interaction – biochemical, fluorescence polarization, dose response (AID 1964);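 also: purified POS-1 fused to maltose binding protein made in E. coli; potency of compounds blocking POS-1 binding to fluorescent RNA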
T2 sequence (G5EF15 whole entry): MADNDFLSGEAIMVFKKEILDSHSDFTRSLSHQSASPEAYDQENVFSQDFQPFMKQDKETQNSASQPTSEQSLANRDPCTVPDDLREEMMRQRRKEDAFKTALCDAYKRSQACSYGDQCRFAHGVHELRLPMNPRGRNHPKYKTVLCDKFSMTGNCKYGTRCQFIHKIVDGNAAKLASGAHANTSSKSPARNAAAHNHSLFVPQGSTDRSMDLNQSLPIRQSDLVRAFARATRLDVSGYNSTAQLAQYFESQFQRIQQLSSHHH

Cytochrome P450 2C19 = Cytochrome P450 2C19 (Homo sapiens, UniProt P33261); assay: Cytochrome panel assay with activity outcomes. Panel member name: p450-cyp2c19 Compounds with AC50 equal or less than 10 uM are considered active; assay type: functional; conditions: read-out: AC50
Cytochrome P450 2D6 = Cytochrome P450 2D6 (Homo sapiens, UniProt P10635);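 also: CYP2D6 member of a cytochrome P450 panel assay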
Cytochrome P450 1A2 = molecular target: T3, Cytochrome P450 1A2 (Homo sapiens, UniProt P05177);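 also: PubChem cytochrome P450 panel assay, CYP1A2 panel member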
T3 sequence (P05177 whole entry): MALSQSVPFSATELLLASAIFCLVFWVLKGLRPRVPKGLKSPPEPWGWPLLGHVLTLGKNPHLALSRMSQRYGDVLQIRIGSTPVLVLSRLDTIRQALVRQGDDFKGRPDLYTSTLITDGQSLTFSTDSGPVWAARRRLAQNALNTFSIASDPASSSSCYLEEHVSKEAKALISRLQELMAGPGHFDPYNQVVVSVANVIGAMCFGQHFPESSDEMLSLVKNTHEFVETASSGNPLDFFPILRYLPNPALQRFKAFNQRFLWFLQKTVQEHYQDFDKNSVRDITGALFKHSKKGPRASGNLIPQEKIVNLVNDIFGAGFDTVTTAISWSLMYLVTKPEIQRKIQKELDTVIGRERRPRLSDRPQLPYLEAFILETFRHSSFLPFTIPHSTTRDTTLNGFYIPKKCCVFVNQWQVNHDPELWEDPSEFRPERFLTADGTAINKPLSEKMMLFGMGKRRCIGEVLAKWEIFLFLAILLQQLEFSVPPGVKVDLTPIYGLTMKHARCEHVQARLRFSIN

Cytochrome P450 2C9 = Cytochrome P450 2C9 (Homo sapiens, UniProt P11712)
[3] = molecular target: T4, Heat shock factor protein 1 (Mus musculus, UniProt P38532); assay: enhancement of HSF1-driven luciferase signal – cell-based, NIH3T3, luminescence, dose retest, confirmation (AID 435004); assay type: functional;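 also: stress induced by proteasome inhibitor MG132 added 30 min after compound; luciferase reporter driven by HSF1 response element in NIH3T3 cells; actives raise luminescence as potentiators of the MG132 stress response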
T4 sequence (P38532 whole entry): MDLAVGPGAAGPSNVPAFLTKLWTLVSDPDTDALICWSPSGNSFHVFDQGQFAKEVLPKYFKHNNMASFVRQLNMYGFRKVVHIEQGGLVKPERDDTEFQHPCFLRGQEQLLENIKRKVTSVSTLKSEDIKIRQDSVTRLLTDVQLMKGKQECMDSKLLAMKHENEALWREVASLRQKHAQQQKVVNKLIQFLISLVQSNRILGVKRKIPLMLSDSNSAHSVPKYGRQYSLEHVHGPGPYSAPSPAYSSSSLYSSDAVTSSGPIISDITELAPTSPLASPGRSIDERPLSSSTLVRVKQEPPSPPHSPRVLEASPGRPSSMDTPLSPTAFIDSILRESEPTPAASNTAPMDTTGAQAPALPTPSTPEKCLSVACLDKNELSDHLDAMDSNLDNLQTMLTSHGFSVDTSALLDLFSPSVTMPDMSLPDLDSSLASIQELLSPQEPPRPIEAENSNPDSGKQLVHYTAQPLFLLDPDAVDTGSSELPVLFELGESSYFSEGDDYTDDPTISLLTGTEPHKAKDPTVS

Cytochrome P450 3A4 = Cytochrome P450 3A4 (Homo sapiens, UniProt P08684);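 also: CYP3A4 tested as one member of a cytochrome P450 panel screen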
[4] = alpha-synuclein stem-loop luciferase translation blockers – H4 neuroglioma cells, luminescence, confirmation (AID 1988); assay type: functional, cell-based
[5] = luciferase reporter signal suppression in cells – H4 neuroglioma cells, luminescence, dose response (AID 1990); assay type: functional, cell-based
H4 = assay: Luminescence Cell-Based Dose Response HTS to Identify Activators of 5'UTR Stem-Loop Driven Prion Protein mRNA Translation in H4 Neuroglioblastoma Cells. [Related pubchem assays: 1829 (Project Summary), 1814 (Primary HTS)]; assay type: functional; conditions: Homo sapiens
[6] = Luminescence Cell-Based Dose Confirmation HTS to Identify Activators of 5'UTR Stem-Loop Driven Alpha-Synuclein mRNA Translation in H4 Neuroglioblastoma Cells. [Related pubchem assays: 1829 (Project Summary), 1814 (Primary HTS)]; assay type: functional
[7] = viability of uninfected HEp-2 cells – cell-based, HTS, cytotoxicity control for RSV inhibitor project, dose response (AID 2410); assay type: functional; conditions: human respiratory syncytial virus
[8] = Luminescence Cell-Based Dose Response HTS to Identify Activators of Luciferase Translation or Activity in H4 […] Cells. [Related pubchem assays: 1829 (Project Summary), 1814 (Primary HTS)]; assay type: functional

Sequence of Cytochrome P450 2C9 (P11712 whole entry): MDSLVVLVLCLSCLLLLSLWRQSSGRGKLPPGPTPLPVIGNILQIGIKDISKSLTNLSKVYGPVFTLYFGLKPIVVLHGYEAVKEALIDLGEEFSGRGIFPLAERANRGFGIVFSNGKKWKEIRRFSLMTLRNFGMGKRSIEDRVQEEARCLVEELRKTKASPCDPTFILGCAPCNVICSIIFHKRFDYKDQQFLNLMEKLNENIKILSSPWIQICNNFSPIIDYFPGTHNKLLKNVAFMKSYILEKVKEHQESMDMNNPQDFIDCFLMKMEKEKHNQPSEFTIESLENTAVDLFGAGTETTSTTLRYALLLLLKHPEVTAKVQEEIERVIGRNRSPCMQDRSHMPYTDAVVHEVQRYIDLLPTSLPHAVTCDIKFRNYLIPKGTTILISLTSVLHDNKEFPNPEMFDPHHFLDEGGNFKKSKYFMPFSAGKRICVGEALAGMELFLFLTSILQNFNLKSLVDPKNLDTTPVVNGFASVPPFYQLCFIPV
Sequence of Cytochrome P450 2C19 (P33261 whole entry): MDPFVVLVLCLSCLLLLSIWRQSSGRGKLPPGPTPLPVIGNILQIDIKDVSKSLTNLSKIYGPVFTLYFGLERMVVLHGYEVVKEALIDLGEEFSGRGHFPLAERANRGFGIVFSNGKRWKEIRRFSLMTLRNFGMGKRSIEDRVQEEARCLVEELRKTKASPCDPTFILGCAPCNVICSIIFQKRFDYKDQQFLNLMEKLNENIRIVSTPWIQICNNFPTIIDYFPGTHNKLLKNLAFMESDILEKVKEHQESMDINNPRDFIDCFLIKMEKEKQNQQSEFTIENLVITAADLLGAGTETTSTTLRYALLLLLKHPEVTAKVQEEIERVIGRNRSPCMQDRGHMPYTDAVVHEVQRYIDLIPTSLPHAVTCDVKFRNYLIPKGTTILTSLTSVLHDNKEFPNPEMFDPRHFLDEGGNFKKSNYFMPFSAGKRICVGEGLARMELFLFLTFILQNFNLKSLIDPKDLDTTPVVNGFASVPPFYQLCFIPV
Sequence of Cytochrome P450 2D6 (P10635 whole entry): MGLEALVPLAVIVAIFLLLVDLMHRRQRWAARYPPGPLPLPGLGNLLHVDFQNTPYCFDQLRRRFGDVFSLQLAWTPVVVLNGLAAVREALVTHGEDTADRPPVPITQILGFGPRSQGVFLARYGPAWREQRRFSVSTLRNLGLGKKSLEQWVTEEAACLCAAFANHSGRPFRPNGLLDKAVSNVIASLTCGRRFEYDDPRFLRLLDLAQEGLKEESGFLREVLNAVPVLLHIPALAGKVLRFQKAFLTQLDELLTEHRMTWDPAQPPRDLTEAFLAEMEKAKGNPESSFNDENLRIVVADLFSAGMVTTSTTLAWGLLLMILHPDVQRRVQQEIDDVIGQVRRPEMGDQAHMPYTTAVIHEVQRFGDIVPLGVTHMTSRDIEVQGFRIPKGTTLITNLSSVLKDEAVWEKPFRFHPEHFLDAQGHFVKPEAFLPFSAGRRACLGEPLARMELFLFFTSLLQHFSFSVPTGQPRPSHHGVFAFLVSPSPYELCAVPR
Sequence of Cytochrome P450 3A4 (P08684 whole entry): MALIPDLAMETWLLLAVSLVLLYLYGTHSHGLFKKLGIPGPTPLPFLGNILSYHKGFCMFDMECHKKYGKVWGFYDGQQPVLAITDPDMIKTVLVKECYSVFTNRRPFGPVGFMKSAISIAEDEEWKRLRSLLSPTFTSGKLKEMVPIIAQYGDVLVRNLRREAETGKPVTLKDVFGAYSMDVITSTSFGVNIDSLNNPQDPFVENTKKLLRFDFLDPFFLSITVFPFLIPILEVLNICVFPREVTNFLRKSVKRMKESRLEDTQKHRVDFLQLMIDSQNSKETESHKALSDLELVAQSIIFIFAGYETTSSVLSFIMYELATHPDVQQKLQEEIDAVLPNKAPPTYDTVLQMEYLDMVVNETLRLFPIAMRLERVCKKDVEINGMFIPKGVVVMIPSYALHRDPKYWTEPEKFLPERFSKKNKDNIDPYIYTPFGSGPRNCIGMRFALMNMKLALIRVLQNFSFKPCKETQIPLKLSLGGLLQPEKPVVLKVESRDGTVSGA

| SMILES | EC50 [1] | EC50 [2] | AC50 (Cytochrome P450 2D6) | other results |
| --- | --- | --- | --- | --- |
| COc1ccc(C=C2C(=O)OC(C)(C)OC2=O)cc1OC | > 300 µM (not active) | > 300 µM (not active) | – | – |
| Cc1c(N/C=C2\C(=O)NC(=O)N(Cc3ccco3)C2=O)c(=O)n(-c2ccccc2)n1C | > 300 µM (not active) | > 300 µM (not active) | – | – |
| COc1ccc2c(c1)C1C=CCC1C(c1cc3c(cc1Br)OCO3)N2 (stereo not given) | 47.9 µM (active) | > 300 µM (not active) | – | – |
| CCN(CCCl)Cc1ccccc1Br | – | – | 12.6 µM (inconclusive) | AC50 (Cytochrome P450 2C19): 39.8 µM (inconclusive); AC50 (Cytochrome P450 1A2): 15.8 µM (inconclusive) |
| COc1ccc(NC(=O)CSc2nc(C)c3c(c2C#N)CCCC3)cc1 | – | – | 2.24 µM (inconclusive) | AC50 (Cytochrome P450 2C9): 8.91 µM (inconclusive) |
| CCC(C)C(NC(=O)OCc1ccccc1)C(=O)OCN1C(=O)c2ccccc2C1=O (stereo not given) | – | – | 0.631 µM (inconclusive) | – |
| C[N+]1(C)CCc2cc3c(cc2[C@@H]1[C@@H]1OC(=O)c2c1ccc1c2OCO1)OCO3 | – | – | 31.6 µM (inconclusive) | – |
| Cn1ncc2c(NNC(=O)Cc3ccccc3)ncnc21 | 10.5 µM (active) | > 300 µM (not active) | – | – |
| CCC1(C)CC(CCNS(=O)(=O)c2ccc(C)cc2)(c2ccc(C)cc2)CCO1 (stereo not given) | – | – | 28.2 µM (inconclusive) | – |
| Cc1noc(C)c1-c1ccc2ncnc(N(C)Cc3ccco3)c2c1 | – | – | 20 µM (inconclusive) | – |
| O=C1NCC2=C1C(c1ccc(Br)cc1)Nc1ccccc1N2 (stereo not given) | – | – | 2.24 µM (inconclusive) | EC50 [3]: > 260 µM (inactive); AC50 (Cytochrome P450 3A4): 25.1 µM (inconclusive) |
| O=C(CN1CCOCC1)Nc1cccc(Cl)c1Cl | – | – | – | EC50 [4]: > 120 µM (not active); EC50 [5]: > 120 µM (not active) |
| O=c1cnc2cnc(N3CCOCC3)nc2n1Cc1cccs1 | – | – | 25.1 µM (inconclusive) | AC50 (Cytochrome P450 2C19): 31.6 µM (inconclusive); AC50 (Cytochrome P450 3A4): 15.8 µM (inconclusive); AC50 (Cytochrome P450 2C9): 31.6 µM (inconclusive) |
| Cc1cccc(C)c1NC(=O)/C(C#N)=C/c1cccs1 | – | – | 6.31 µM (inconclusive) | – |
| C=CCn1cc(C=C2C(=O)NC(=O)NC2=O)c2ccccc21 | 112 µM (inconclusive) | > 300 µM (not active) | – | – |
| O/C(=C(\C([S-])=NCc1ccco1)[n+]1ccccc1)c1ccccc1Br | 58.4 µM (active) | > 300 µM (not active) | – | – |
| COc1ccc(C(=O)/C=C/c2ccccc2OC)c(OC(=O)c2ccc([N+](=O)[O-])cc2)c1 | – | – | – | EC50 (H4): 54.1 µM (inconclusive); EC50 [6]: 17.3 µM (active); CC50 [7]: 19.1 µM (active); EC50 [8]: 23.8 µM (active) |
| CN/C(=N/C#N)NCCSC[C@H]1N=CN=C1C | – | – | 10 µM (inconclusive) | – |
| CSC(=Nc1cccc(Cl)c1C)NS(=O)(=O)c1cccs1 | > 300 µM (not active) | > 300 µM (not active) | – | – |
| COc1ccc(OC)c(S(=O)(=O)NC2CCN(Cc3ccccc3)CC2)c1 | > 300 µM (not active) | > 300 µM (not active) | – | – |
| CCCC[C@@H]1C[C@H]1C(NC(=O)c1ccco1)c1ccc(C(=O)OC)cc1 (stereo not given in full) | – | – | 25.1 µM (inconclusive) | – |

| SMILES | EC50 [1] | EC50 [2] | AC50 (Cytochrome P450 2D6) | other results |
| --- | --- | --- | --- | --- |
| C=CCNC(=O)/C(=C\C=C\c1ccccc1)NC(=O)c1ccc(OCCCC)cc1 | – | – | 4.47 µM (inconclusive) | – |
| CC1C2(C)OC(=N)C(C#N)(C(C)O2)C1(C#N)C#N (stereo not given) | 16 µM (active) | > 300 µM (not active) | – | – |
| COc1cccc(NC(=O)c2ccccc2Br)c1 | > 300 µM (not active) | > 300 µM (not active) | – | – |
| COc1ccccc1-c1cncnc1NCc1cccnc1 | – | – | 39.8 µM (inconclusive) | – |
| O=C(C1CCC(=O)N1Cc1ccccc1Cl)N1CCN(c2ccc(F)cc2)CC1 (stereo not given) | – | – | 15.8 µM (inconclusive) | AC50 (Cytochrome P450 2C19): 20 µM (inconclusive); AC50 (Cytochrome P450 1A2): 2.51 µM (inconclusive); AC50 (Cytochrome P450 3A4): 12.6 µM (inconclusive); AC50 (Cytochrome P450 2C9): 25.1 µM (inconclusive) |
| Cc1cc(/C=C2\C(=O)NC(=O)N(c3ccc(F)cc3)C2=O)c(C)n1-c1ccc(C(=O)O)cc1 | > 300 µM (not active) | > 300 µM (not active) | – | – |
| N#Cc1nc(Cc2ccccc2)oc1NCCc1ccccc1 | – | – | – | EC50 (H4): 14.5 µM (active); EC50 [6]: 4.71 µM (active); CC50 [7]: 28.9 µM (active); EC50 [8]: 56.9 µM (active) |
| CCn1c(SCc2cccc(C)c2)nnc1-c1ccccc1 | – | – | 15.8 µM (inconclusive) | AC50 (Cytochrome P450 3A4): 3.16 µM (inconclusive); AC50 (Cytochrome P450 2C9): 35.5 µM (inconclusive) |
| O=C(c1ccco1)N1CCC2(CC1)CCN(c1ccccc1)CC2 | – | – | 25.1 µM (inconclusive) | – |
| CCOC(=O)c1c(-n2c(C)cc(/C=C3/C(=O)NC(=O)N(CC)C3=O)c2C)sc2c1CCCC2 | 29.8 µM (active) | 25.1 µM (active) | – | – |
| CC(C)(C)c1ccc(OCc2ccc(C(=O)Nc3cccnc3)o2)cc1 | > 300 µM (not active) | > 300 µM (not active) | – | – |
| COc1cc(OC)cc(C(=O)NC(=S)NCCc2ccccc2)c1 | – | – | 10 µM (inconclusive) | – |
| CC(=O)Nc1c(S(=O)(=O)c2ccccc2)c2nc3ccccc3nc2n1Cc1ccccc1 | – | – | 25.1 µM (inconclusive) | – |
| CN(Cc1ccco1)c1ncncc1-c1ccccc1C(F)(F)F | – | – | 20 µM (inconclusive) | AC50 (Cytochrome P450 1A2): 12.6 µM (inconclusive) |
| O=C(c1cccc(F)c1)N1CCC[C@@]2(CCN(C(c3ccccc3)c3ccccc3)C2)C1 | – | – | 12.6 µM (inconclusive) | – |
| C#CCCCCCCCCCCCCCCCC(=O)O | – | – | 20 µM (inconclusive) | AC50 (Cytochrome P450 2C19): 25.1 µM (inconclusive) |
| C[N+]1(NCC[N@@+]2(C)CCc3ccccc3C2)CCCCC1 | – | – | 1.58 µM (inconclusive) | – |
| C[C@H](NC(C)(C)C)C(=O)c1cccc(Cl)c1 | – | – | 31.6 µM (inconclusive) and 6.31 µM (inconclusive) | AC50 (Cytochrome P450 2C19): 15.8 µM (inconclusive) and 3.16 µM (inconclusive) |
| CC(=O)/N=c1\c(C#N)cc2c(=O)n3cccc(C)c3nc2n1CCCOC(C)C | – | > 300 µM (not active) | – | – |
| Cc1cccc(C)c1NC(=O)NN=C1CCCCC1 | > 300 µM (not active) | > 300 µM (not active) | – | – |
| Cc1ccc(S(=O)(=O)N[C@@H](CCCCN)C(=O)CCl)cc1 | – | – | 25.1 µM (inconclusive) | – |
